Assay results from ChEMBL document CHEMBL1201862, “PubChem BioAssay data set” (2004).
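Exposure lasted 48 hours, with cells grown in 96-well plates and compounds tested at five concentrations. Abbreviation: GI50, concentration required for 50% inhibition of growth.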 The source made the active and inactive calls. Rule as the data show it: active = GI50 up to about 1.1 µM and inactive = higher.

Tests used:
Test in all cases: growth of human tumour cells (NCI), 48 h
786-0 = tested on: 786-0
ACHN = tested on: ACHN
CAKI-1 = tested on: CAKI-1
COLO 205 = tested on: COLO 205
EKVX = tested on: EKVX
HL-60 = tested on: HL-60
HOP-92 = tested on: HOP-92
LOX IMVI = tested on: LOX IMVI
MOLT-4 = tested on: MOLT-4
NCI-H226 = tested on: NCI-H226
OVCAR-8 = tested on: OVCAR-8
RXF 393 = tested on: RXF 393
SF-295 = tested on: SF-295
SK-MEL-28 = tested on: SK-MEL-28
SK-MEL-5 = tested on: SK-MEL-5
SN12C = tested on: SN12C
SW-620 = tested on: SW-620
UACC-62 = tested on: UACC-62
SR = tested on: SR

Measured: GI50

C=CCC(OCCOCC)c1cc(OCCOCC)ccc1OC (stereo unspecified)
inactive: 786-0 > 100 µM | ACHN > 100 µM | CAKI-1 > 100 µM | COLO 205 > 100 µM | EKVX > 100 µM | HL-60 > 100 µM | HOP-92 > 100 µM | LOX IMVI > 100 µM | MOLT-4 > 100 µM | NCI-H226 > 100 µM | OVCAR-8 > 100 µM | RXF 393 > 100 µM | SF-295 > 100 µM | SK-MEL-28 > 100 µM | SK-MEL-5 > 100 µM | SN12C > 100 µM | SW-620 > 100 µM | UACC-62 > 100 µM

O=c1[nH]c(=O)n(C2CC(O)C(CO)O2)cc1C#Cc1cc(F)cc(F)c1 (stereo unspecified)
inactive: 786-0 > 100 µM | ACHN > 100 µM | CAKI-1 > 100 µM | COLO 205 > 100 µM | EKVX > 100 µM | LOX IMVI > 100 µM | MOLT-4 > 100 µM | NCI-H226 > 100 µM | OVCAR-8 > 100 µM | SF-295 > 100 µM | SK-MEL-28 > 100 µM | SK-MEL-5 > 100 µM | SN12C > 100 µM | SW-620 > 100 µM | UACC-62 > 100 µM

O=C1C2=C(c3ccccc31)C(c1ccc(Cl)cc1)N1C(=O)CCSC1=N2 (stereo unspecified)
inactive: 786-0 > 100 µM | ACHN > 100 µM | CAKI-1 > 100 µM | COLO 205 > 100 µM | EKVX 68.2 µM | HL-60 34.8 µM | HOP-92 31.4 µM | MOLT-4 41.8 µM | NCI-H226 51.8 µM | OVCAR-8 > 10 µM | SF-295 99.3 µM | SK-MEL-28 > 100 µM | SK-MEL-5 47.9 µM | SN12C 44.6 µM | SW-620 63.1 µM | UACC-62 54.3 µM

CCCCCC(/C=C/[C@@H]1[C@H]2CC(=O)O[C@H]2C[C@H]1N1CCOCC1)OC1CCCO1 (stereo partly specified)
inactive: 786-0 > 100 µM | ACHN > 100 µM | CAKI-1 > 100 µM | COLO 205 > 100 µM | EKVX > 100 µM | HL-60 > 100 µM | HOP-92 > 100 µM | LOX IMVI > 100 µM | MOLT-4 > 100 µM | NCI-H226 > 100 µM | OVCAR-8 > 100 µM | RXF 393 > 100 µM | SF-295 > 100 µM | SK-MEL-28 > 100 µM | SK-MEL-5 > 100 µM | SW-620 > 100 µM | UACC-62 > 100 µM

N#CC(C#N)/N=C/c1ccncc1
inactive: 786-0 > 100 µM | ACHN > 100 µM | CAKI-1 > 100 µM | COLO 205 > 100 µM | EKVX > 100 µM | HL-60 39 µM | HOP-92 > 100 µM | LOX IMVI > 100 µM | MOLT-4 > 100 µM | NCI-H226 > 100 µM | OVCAR-8 > 100 µM | RXF 393 > 100 µM | SF-295 > 100 µM | SK-MEL-28 > 100 µM | SK-MEL-5 > 100 µM | SN12C > 100 µM | SW-620 > 100 µM | UACC-62 > 100 µM

COC(=O)/C(=N\Nc1nc(S)nn1N)C(C#N)c1ccccc1 (stereo unspecified)
inactive: 786-0 > 100 µM | ACHN > 100 µM | COLO 205 > 100 µM | EKVX > 100 µM | HL-60 > 100 µM | LOX IMVI > 100 µM | MOLT-4 > 100 µM | NCI-H226 > 100 µM | OVCAR-8 > 100 µM | RXF 393 > 100 µM | SK-MEL-28 > 100 µM | SK-MEL-5 > 100 µM | SN12C > 100 µM | SW-620 > 100 µM | UACC-62 > 100 µM

CCOc1ccc(NCC2CC/C(=C\c3ccccc3OC)C2=O)cc1 (stereo unspecified)
inactive: 786-0 3.01 µM | ACHN 14.6 µM | CAKI-1 12.5 µM | COLO 205 2.29 µM | EKVX 17.4 µM | HL-60 4.3 µM | HOP-92 19.5 µM | LOX IMVI 6.61 µM | MOLT-4 2.75 µM | NCI-H226 18.6 µM | OVCAR-8 5.18 µM | RXF 393 8.91 µM | SF-295 18 µM | SK-MEL-28 11 µM | SK-MEL-5 16.1 µM | SN12C 7.1 µM | SW-620 4.23 µM | UACC-62 11.8 µM

O=C1c2ccccc2C(=O)c2c(NCCNCCO)ccc(O)c21
inactive: 786-0 3.66 µM | ACHN 2.73 µM | CAKI-1 2.64 µM | COLO 205 2.26 µM | EKVX 3.98 µM | HL-60 2.61 µM | HOP-92 3.21 µM | LOX IMVI 1.51 µM | MOLT-4 1.37 µM | NCI-H226 2.71 µM | OVCAR-8 2.39 µM | RXF 393 2.15 µM | SF-295 4.35 µM | SK-MEL-28 2.88 µM | SK-MEL-5 3.18 µM | SN12C 1.45 µM | SW-620 2.26 µM | UACC-62 3.35 µM

O=C(C#Cc1cnc(O)nc1O)c1ccccc1
inactive: 786-0 12.2 µM | ACHN 14.5 µM | CAKI-1 18.2 µM | COLO 205 7.23 µM | EKVX 12 µM | HL-60 3.3 µM | HOP-92 13.2 µM | LOX IMVI 4.42 µM | MOLT-4 2.48 µM | NCI-H226 24.8 µM | OVCAR-8 10.5 µM | RXF 393 1.7 µM | SF-295 35.9 µM | SK-MEL-28 10.9 µM | SK-MEL-5 12.7 µM | SN12C 4.37 µM | SW-620 6.76 µM | UACC-62 7.28 µM

NCCOCn1cc(Cc2cccc(OCc3ccccc3)c2)c(=O)[nH]c1=O
inactive: 786-0 53.6 µM | ACHN > 10 µM | COLO 205 92.5 µM | EKVX > 100 µM | HL-60 55.5 µM | HOP-92 > 100 µM | LOX IMVI 39 µM | MOLT-4 73.8 µM | NCI-H226 > 100 µM | OVCAR-8 > 100 µM | SF-295 > 100 µM | SK-MEL-28 > 100 µM | SK-MEL-5 > 100 µM | SN12C > 100 µM | SW-620 > 100 µM | UACC-62 > 100 µM

N#Cc1c(-c2ccco2)cc(-c2ccc(NCc3nc4ccccc4[nH]3)cc2)nc1N
inactive: 786-0 28.6 µM | ACHN 26.5 µM | CAKI-1 33.8 µM | COLO 205 21.6 µM | HL-60 20 µM | HOP-92 21.4 µM | LOX IMVI 18.7 µM | MOLT-4 15.3 µM | OVCAR-8 20.4 µM | RXF 393 16 µM | SF-295 19.5 µM | SK-MEL-28 27.5 µM | SK-MEL-5 16 µM | SN12C 22.5 µM | SW-620 35.3 µM | UACC-62 16.6 µM

CS(=O)(=O)c1c(N)c2nc(Cl)cn2c2nc3ccccc3nc12
inactive: 786-0 62.4 µM | ACHN > 100 µM | CAKI-1 > 100 µM | COLO 205 > 100 µM | EKVX > 100 µM | LOX IMVI > 100 µM | MOLT-4 > 100 µM | NCI-H226 > 100 µM | OVCAR-8 57.8 µM | SF-295 > 100 µM | SK-MEL-28 > 100 µM | SK-MEL-5 > 100 µM | SN12C > 100 µM | SR > 100 µM | SW-620 > 100 µM | UACC-62 > 100 µM
